According to the NIST ThermoML archive (doi:10.1016/j.jct.2018.08.004):
Numbers after ± are expanded uncertainties.

Tests used:
[1] = Maximal bubble pressure
[2] = xn = mol fraction of the nth substance listed; conditions: x2 = 0; for surface tension liquid-gas: Maximal bubble pressure; for mass density: 100 kPa, Liquid, Vibrating tube method

CCO [ethanol]
[1]
Conditions	surface tension liquid-gas [mN/m]
288.15 K	23.3 ± 0.8
293.15 K	22.7 ± 0.8
298.15 K	22.2 ± 0.8
303.15 K	21.6 ± 0.7
308.15 K	21.1 ± 0.7
313.15 K	20.7 ± 0.7
318.15 K	20 ± 0.7

CCO [ethanol] + CCCC[n+]1ccccc1.N#C[N-]C#N
[2]
Conditions	mass density [kg/m3]	surface tension liquid-gas [mN/m]
288.15 K	793.91 ± 2	23.3 ± 0.8
293.15 K	789.66 ± 2	22.7 ± 0.8
298.15 K	785.73 ± 2	22.2 ± 0.8
303.15 K	781.05 ± 2	21.6 ± 0.7
308.15 K	776.7 ± 1.9	21.1 ± 0.7
313.15 K	772.31 ± 1.9	20.7 ± 0.7
318.15 K	767.88 ± 1.9	20 ± 0.7

CCCO [propan-1-ol]
[1]
Conditions	surface tension liquid-gas [mN/m]
288.15 K	24.5 ± 0.8
293.15 K	23.9 ± 0.8
298.15 K	23.4 ± 0.8
303.15 K	23 ± 0.8
308.15 K	22.5 ± 0.8
313.15 K	22.1 ± 0.7
318.15 K	21.6 ± 0.7

CCCO [propan-1-ol] + CCCC[n+]1ccccc1.N#C[N-]C#N
[2]
Conditions	mass density [kg/m3]	surface tension liquid-gas [mN/m]
288.15 K	807.55 ± 2	24.5 ± 0.8
293.15 K	803.59 ± 2	23.9 ± 0.8
298.15 K	799.58 ± 2	23.4 ± 0.8
303.15 K	795.55 ± 2	23 ± 0.8
308.15 K	791.47 ± 2	22.5 ± 0.8
313.15 K	787.36 ± 2	22.1 ± 0.7
318.15 K	783.2 ± 2	21.6 ± 0.7

CC(C)O [propan-2-ol]
[1]
Conditions	surface tension liquid-gas [mN/m]
288.15 K	22.2 ± 0.8
293.15 K	21.7 ± 0.7
298.15 K	21.2 ± 0.7
303.15 K	20.8 ± 0.7
308.15 K	20.3 ± 0.7
313.15 K	19.9 ± 0.7
318.15 K	19.4 ± 0.7

CC(C)O [propan-2-ol] + CCCC[n+]1ccccc1.N#C[N-]C#N
[2]
Conditions	mass density [kg/m3]	surface tension liquid-gas [mN/m]
288.15 K	789.41 ± 2	22.2 ± 0.8
293.15 K	785.29 ± 2	21.7 ± 0.7
298.15 K	781.08 ± 2	21.2 ± 0.7
303.15 K	776.81 ± 1.9	20.8 ± 0.7
308.15 K	772.46 ± 1.9	20.3 ± 0.7
313.15 K	768.02 ± 1.9	19.9 ± 0.7
318.15 K	763.48 ± 1.9	19.4 ± 0.7
